Assay results published in patent US11065275B2, “Cross-linking agents and associated methods” (University of Utah Research Foundation, priority 2016, dated 2021).
Where two headings read alike, the source gives them in different places.

Tests used:
[1] = system: human cadaver corneas and rabbit corneas
Protocol: Cornea radial strain measurements were performed on human cadaver corneas and on rabbit corneas. Human cadaver corneas (n=2 pairs) were cultured as previously mentioned in Example 1. The treated group was immersed in 0.0016 mg/ml CuSO4 for 2 weeks. The samples also contained a small portion of sclera at both ends. Mineral oil was applied on the surface of the sclera-cornea-sclera strip to minimize tissue dehydration. Rabbit corneas were divided into 4 groups. Two groups were treatment groups receiving either CuSO4 0.0025 mg/ml three times per day or CuSO4 0.0025 mg/ml once per day. Two groups served as control receiving only BSS.
The sample was coupled between a motor and a transducer that applied a controlled pressure from 5-30 mmHg and measured the resultant radial strain. The sample length between the two gripping jaws was approximately 10 mm. Sample geometric information, including width and thickness, was input into the Rheometrics System Analyzer (RSA) control panel. Sample thickness was measured by an ultrasound pachymeter (DGH 550 Pa-chette2; DGH Technology, Exton, Pa.).

lysyl oxidase (LOX) = conditions: 0.0016 mg/mL CuSO4 in BSS vs BSS control
Protocol: As a parallel assay, we added 500 uM aminopropionitrile (BAPN) which can diminish LOX activity completely. The fluorescence of oxidized Amplex red was recorded every 10 minutes using fluorescence plate reader.

[2] = system: cornea of New Zealand white rabbits; conditions: 0.0025 mg/ml once or three times per day, 0.025 mg/ml once per day; weekly for 5 weeks; mean K and at 3 mm
Protocol: Copper sulfate (CuSO4) at 0.0025 mg/ml was administered to New Zealand white rabbits at a dose of once per day and three times per day. Additionally, a high concentration sample of 0.025 mg/ml was administered to New Zealand with rabbits once per day during the treatment period. Three different controls were administered either no drops, BSS, or artificial tears. Each of the 6 groups included 6 test subjects each. Topography images were taken before treatment and weekly for 5 weeks. Diopter measurements were the mean K values and at 3 mm. These values were compared to diopter measurements in laser cross-linked corneas after 1 month and 1 year.

Human Keratoconus Cornea = conditions: corneas treated 1 week with 0.0016 mg/ml CuSO4 vs untreated, HPLC
Protocol: Each Human Keratoconus Cornea was bisected. One half was treated with 0.0016 mg/ml CuSo4 in Optisol solution for 1 week and other half was left untreated. After one week each cornea was kept in negative 80° C. for future analysis.
The cornea samples were washed with PBS pH 7.4 and powdered in liquid nitrogen and pulverized with a Freezer Mill. Cornea samples were demineralized with 0.5 M EDTA in 0.05 M Tris buffer, pH 7.4, for 48 h at 4° C. The insoluble fraction was washed twice with distilled water by centrifugation at 5000 g at […] for 20 min and lyophilized. The lyophilized sample was hydrolyzed with constantly boiling redistilled 6 N HCl in vacuo for 24 h at 110° C. The hydrolysate was neutralized with 2.5 N NaOH and dissolved in distilled water. Analyses were performed for Lysinonorleucine (LNL) and Histidinohydroxylysinonorleucine (HHL) separately by HPLC.
Amino acid analysis is an important application area in protein chemistry and food analysis. Many different applications exist in this field. Automated pre-column derivatization followed by reverse phase LC has become a useful procedure for efficient analysis, since it is an easy and simple to use technique. An Agilent 1290 Infinity LC System was used with automated pre-column derivatization for fast and sensitive analysis of Lysinonorleucine (LNL). The column used for this method is Agilent ZORBAX Eclipse Plus RRHD C18 (3.0 mm×50 mm, 1.8 μm) and Mobile phase consisted of Solvent A: 10 mM disodium phosphate+10 mM sodium tetraborate pH 8.2 and Solvent B: ACN/MeOH/H2O (45:45:10)
To […] of the protein hydrolysate sample (less than 3 mM as the total amino acid concentration), 50 μl of 1.5 mM Ne-methyl-L-lysine hydrochlo ide (Mly) in 0.26 M borate buffer, pH 9.5, and 50 μl of acetone were added in a 1.5-ml reaction vial. Then 25 μl of FMOC-Cl reagent (6 mM FMOC-Cl in acetone) was added and the mixture was allowed to react for 2 min at room temperature. The reaction mixture was extracted twice with […] of pentane to remove excess FMOC-Cl reagent. The aqueous phase was subjected to chromatography.
Cornea cross-linking is tissue specific. The predominant cross-links generated in the human cornea are lysinonorleucine (LNL). LNL are the building blocks for subsequent multivalent cross-links such as the histidinyl-hydroxylysinonorleucine (HHL). Normal and keratoconic human corneas were treated for 1 week with 0.0016 mg/ml CuSO4. Then, an HPLC analysis was performed to measure levels of LNL (FIGS. 2A-2C) and HHL (FIGS. 3A-3C).

rabbits = conditions: 0.0025 mg/ml TID or QD
Protocol: Copper sulfate (CuSO4) solution was prepared at a concentration of 0.0025 mg/ml and administered three times a day (TID) or once a day (QD) to rabbits. An anterior segment evaluation was performed with slit-lamp biomicroscopy and Heidelberg Spectralis anterior segment optical coherence tomography (AS-OCT). Two rabbits (n=4 eyes) were sacrificed at each of day 1, week 1, week 4, and week 6 for copper levels in eye tissues and compared to control (no drops) rabbits. Aqueous humor, vitreous, retina, cornea, lens, and blood samples were analyzed for copper ions using inductively coupled plasma mass spectrometry (ICP-MS).
Rabbits (n=2) were sacrificed after 42 days by intravenous injection of 0.3 ml/kg euthanasia solution and the eyes were enucleated for histological evaluations and reading for signs of inflammation, tissue damage, scarring and fibrosis. The anterior section of the eyes were fixed in 10% formaldehyde-glutaraldehyde solution, dehydrated in a graded series of alcohol, embedded in paraffin, and sectioned with a microtome. The sections were stained with appropriate staining (hematoxylin and eosin and Masson Trichrome).

## O=S(=O)([O-])[O-].[Cu+2] [CuSO4, copper (II) sulfate]
[1]; after copper sulfate treatment vs untreated (FIG. 4)
  corneal stiffness: marked increase
[1]; at 20 mmHg
  average peak radial strain induced by ocular pulse, treated vs untreated corneas: about 1.5 times lower
[1]; compared with laser cross-linking (FIG. 5)
  corneal biomechanics: comparable to that seen with laser cross-linking
[1]; from radial strain at 20 mmHg, treated vs untreated
  increase in corneal strength: ~50%
Lysyl oxidase (LOX); keratoconus corneal fibroblast cells
  lox enzyme activity: dramatically increased
Lysyl oxidase (LOX); normal corneal fibroblast cells
  lox enzyme activity: dramatically increased
[2]
  decrease in diopter measurements vs control groups: greater decrease
Human Keratoconus Cornea
  HHL (histidinyl-hydroxylysinonorleucine) cross-link levels: HHL cross-links are also observed
  LNL (lysinonorleucine) cross-link levels: LNL cross-links were observed
Human Keratoconus Cornea; listed as copper
  HHL (histidinyl-hydroxylysinonorleucine) cross-link levels: significant increase
  LNL (lysinonorleucine) cross-link levels: significant increase
rabbits
  corneal haze: no observed corneal haze
  effect on electroretinography (ERG) measurements: no effect
rabbits; histology after 6 weeks
  toxicity in dissected eye tissues: no observed toxicity
